{"source": "patent US9615577B2", "about": "“Herbicidally active cyclic dione compounds, or derivatives therefor, substituted by a phenyl which has an alkynyl-containing substituent” (Syngenta Limited, priority 2012, dated 2017)", "type_in_all_cases": "in vivo", "key": {"[1]": {"tested_on": "Glycine max (GLXMA, soybean)", "test": "Test 1B glasshouse assay for herbicidal activity, pre-emergence", "details": "480 h, 250 g/ha, 20 DAA, read-out: percentage phytotoxicity GLXMA", "description": "(§1) Seeds of a variety of monocotyledonous and dicotyledonous test plants are sown in standard soil in pots. The plants are cultivated for one day (for pre-emergence) or for about 12 days (range=10-13 days) (for post-emergence) under controlled conditions in a glasshouse (warm climate species at 24/18° C., cool climate species at 20/16° C., both at day/night; 16 hours light; 65% humidity).\n(§2) An “instant formulation”, known as the “IF50”, containing 50 g/liter (i.e. 5% w/v) of the “technical” (i.e. unformulated) active ingredient is prepared by dissolving the active ingredient in a mixture of organic solvents and emulsifier, details of which are provided in the Table below. This IF50 is then mixed with a small, variable amount of acetone to aid dissolution, before addition of a 0.2% v/v aqueous solution of the adjuvant X-77 (which is a mixture of alkyl aryl polyoxyethylene glycols and free fatty acids in isopropanol, CAS Registry number 11097-66-8), as the aqueous diluent, to form an aqueous spray solution which contains a predetermined concentration of the active ingredient (which varies depending on the application rate of the active ingredient to the plants) and 0.2% v/v of the adjuvant X-77. This aqueous spray solution is then sprayed onto the plants, after one day's cultivation (for pre-emergence) or after about 12 days' cultivation (for post-emergence).\n(§3) The test plants are then grown on, in a glasshouse (greenhouse) under controlled conditions (at either 24/18° C. or 20/16° C. (day/night) as mentioned above; 16 hours light; 65% humidity) and are watered twice daily. Either 15 days after application of the herbicide (15 DAA) (for post-emergence), or 20 days after application of the herbicide (20 DAA) (for pre-emergence), the test plants are evaluated visually, and an assessed percentage phytotoxicity score is given for each herbicidal application on each plant species (where 100%=total damage to plant; 0%=no damage to plant).\nWarm climate crop plants: Glycine max (GLXMA, soybean)."}, "[2]": {"tested_on": "Alopecurus myosuroides (ALOMY)", "test": "Test 1B glasshouse assay for herbicidal activity, pre-emergence", "details": "480 h, 250 g/ha, 20 DAA, read-out: percentage phytotoxicity ALOMY", "description": "as §1, §2, §3\n(§4) Cool climate (“cool season”) grassy monocotyledonous weeds: Alopecurus myosuroides (ALOMY), Avena fatua (AVEFA), Lolium perenne (LOLPE)."}, "Avena fatua (AVEFA) [3]": {"tested_on": "Avena fatua (AVEFA)", "test": "Test 1B glasshouse assay for herbicidal activity, pre-emergence", "details": "480 h, 250 g/ha, 20 DAA, read-out: percentage phytotoxicity AVEFA", "description": "as §1, §2, §3, §4"}, "Lolium perenne (LOLPE) [4]": {"tested_on": "Lolium perenne (LOLPE)", "test": "Test 1B glasshouse assay for herbicidal activity, pre-emergence", "details": "480 h, 250 g/ha, 20 DAA, read-out: percentage phytotoxicity LOLPE", "description": "as §1, §2, §3, §4"}, "[5]": {"tested_on": "Digitaria sanguinalis (DIGSA)", "test": "Test 1B glasshouse assay for herbicidal activity, pre-emergence", "details": "480 h, 250 g/ha, 20 DAA, read-out: percentage phytotoxicity DIGSA", "description": "as §1, §2, §3\n(§5) Warm climate (“warm season”) grassy monocotyledonous weeds: Setaria faberi (SETFA), SORVU (Sorghum bicolor (L.) Moench ssp. Bicolor, or Sorghum vulgare Pers.), Digitaria sanguinalis (DIGSA), Echinochloa crus-galli (ECHCG), and Brachiaria plantaginea (BRAPL)."}, "[6]": {"tested_on": "Echinochloa crus-galli (ECHCG)", "test": "Test 1B glasshouse assay for herbicidal activity, pre-emergence", "details": "480 h, 250 g/ha, 20 DAA, read-out: percentage phytotoxicity ECHCG", "description": "as §1, §2, §3, §5"}, "[7]": {"tested_on": "SORVU (Sorghum bicolor (L.) Moench ssp. Bicolor, or Sorghum vulgare Pers.)", "test": "Test 1B glasshouse assay for herbicidal activity, pre-emergence", "details": "480 h, 250 g/ha, 20 DAA, read-out: percentage phytotoxicity SORVU", "description": "as §1, §2, §3, §5"}, "Setaria faberi (SETFA) [8]": {"tested_on": "Setaria faberi (SETFA)", "test": "Test 1B glasshouse assay for herbicidal activity, pre-emergence", "details": "480 h, 250 g/ha, 20 DAA, read-out: percentage phytotoxicity SETFA", "description": "as §1, §2, §3, §5"}, "[9]": {"tested_on": "Beta vulgaris (BEAVA, sugar beet)", "test": "Test 1B glasshouse assay for herbicidal activity, post-emergence", "details": "360 h, 250 g/ha application rate", "in_short": "(§6)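 Plants grown in soil at 20/16° C day/night, 16 h light, 65% humidity; sprayed after 1 day (pre-emergence) or ~12 days (post-emergence) with formulated compound in 0.2% v/v X-77 adjuvant. Visual % phytotoxicity scored 20 DAA (pre) or 15 DAA (post).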"}, "[10]": {"tested_on": "Brassica napus (BRSNN, rape)", "test": "Test 1B glasshouse assay for herbicidal activity, post-emergence", "details": "360 h, 250 g/ha application rate", "in_short": "as §6"}, "[11]": {"tested_on": "Triticum aestivum (TRZAW, winter wheat)", "test": "Test 1B glasshouse assay for herbicidal activity, post-emergence", "details": "360 h, 250 g/ha application rate", "in_short": "as §6"}, "[12]": {"tested_on": "Glycine max (GLXMA, soybean)", "test": "Test 1B glasshouse assay for herbicidal activity, post-emergence", "details": "360 h, 250 g/ha application rate", "in_short": "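Soybean sprayed 1 day after sowing (pre-emergence) or at about 12 days (post-emergence) with aqueous active ingredient plus 0.2% v/v X-77 adjuvant. Plants grown at 24/18 °C day/night, 16 h light, 65% humidity. Visual % phytotoxicity (100% = total damage) scored at 20 DAA pre-emergence, 15 DAA post-emergence.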"}, "[13]": {"tested_on": "Alopecurus myosuroides (ALOMY)", "test": "Test 1B glasshouse assay for herbicidal activity, post-emergence", "details": "360 h, 250 g/ha application rate", "in_short": "(§7)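 For pre-emergence, pots are sprayed one day after sowing and assessed 20 days later; for post-emergence, seedlings of about 12 days are sprayed and assessed after 15 days. Active ingredient goes on as an aqueous spray containing 0.2% v/v X-77. Damage is given as a visual percentage.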"}, "Avena fatua (AVEFA) [14]": {"tested_on": "Avena fatua (AVEFA)", "test": "Test 1B glasshouse assay for herbicidal activity, post-emergence", "details": "360 h, 250 g/ha application rate", "in_short": "as §7"}, "Lolium perenne (LOLPE) [15]": {"tested_on": "Lolium perenne (LOLPE)", "test": "Test 1B glasshouse assay for herbicidal activity, post-emergence", "details": "360 h, 250 g/ha application rate", "in_short": "as §7"}, "[16]": {"tested_on": "Digitaria sanguinalis (DIGSA)", "test": "Test 1B glasshouse assay for herbicidal activity, post-emergence", "details": "360 h, 250 g/ha application rate", "in_short": "(§8)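 Warm-climate glasshouse, 24/18° C., 16 h light, 65% humidity. Spray: IF50 (50 g/liter stock) in 0.2% v/v X-77; pre-emergence 1 day post-sowing, post-emergence ~12 days (10-13). Visual phytotoxicity 0-100%, at 15 DAA post, 20 DAA pre.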"}, "[17]": {"tested_on": "SORVU (Sorghum bicolor (L.) Moench ssp. Bicolor, or Sorghum vulgare Pers.)", "test": "Test 1B glasshouse assay for herbicidal activity, post-emergence", "details": "360 h, 250 g/ha application rate", "in_short": "as §8"}, "Setaria faberi (SETFA) [18]": {"tested_on": "Setaria faberi (SETFA)", "test": "Test 1B glasshouse assay for herbicidal activity, post-emergence", "details": "360 h, 250 g/ha application rate", "in_short": "as §8"}}, "data": [{"smiles": "CC#Cc1cc(Cl)c(C2C(=O)C3CCC(C)(C2=O)C3(C)C)c(OC)c1", "note": "(stereo not drawn) [Compound A-17]", "values": [{"measurement": "plant injury at 250 g/ha", "setting": "[1]", "value": 10, "unit": "%"}, {"measurement": "pest or weed control at 250 g/ha", "setting": "[2]", "value": 0, "unit": "%"}, {"measurement": "pest or weed control at 250 g/ha", "setting": "Avena fatua (AVEFA) [3]", "value": 60, "unit": "%"}, {"measurement": "pest or weed control at 250 g/ha", "setting": "Lolium perenne (LOLPE) [4]", "value": 50, "unit": "%"}, {"measurement": "pest or weed control at 250 g/ha", "setting": "[5]", "value": 100, "unit": "%"}, {"measurement": "pest or weed control at 250 g/ha", "setting": "[6]", "value": 100, "unit": "%"}, {"measurement": "pest or weed control at 250 g/ha", "setting": "[7]", "value": 50, "unit": "%"}, {"measurement": "pest or weed control at 250 g/ha", "setting": "Setaria faberi (SETFA) [8]", "value": 50, "unit": "%"}, {"measurement": "plant injury at 250 g/ha", "setting": "[9]", "value": 10, "unit": "%"}, {"measurement": "plant injury at 250 g/ha", "setting": "[10]", "value": 10, "unit": "%"}, {"measurement": "plant injury at 250 g/ha", "setting": "[11]", "value": 10, "unit": "%"}, {"measurement": "plant injury at 250 g/ha", "setting": "[12]", "value": 10, "unit": "%"}, {"measurement": "pest or weed control at 250 g/ha", "setting": "[13]", "value": 50, "unit": "%"}, {"measurement": "pest or weed control at 250 g/ha", "setting": "Avena fatua (AVEFA) [14]", "value": 0, "unit": "%"}, {"measurement": "pest or weed control at 250 g/ha", "setting": "Lolium perenne (LOLPE) [15]", "value": 20, "unit": "%"}, {"measurement": "pest or weed control at 250 g/ha", "setting": "[16]", "value": 70, "unit": "%"}, {"measurement": "pest or weed control at 250 g/ha", "setting": "[17]", "value": 80, "unit": "%"}, {"measurement": "pest or weed control at 250 g/ha", "setting": "Setaria faberi (SETFA) [18]", "value": 80, "unit": "%"}]}]}
